The record followed here is patent US5001115A, “Prodrugs of biologically active hydroxyaromatic compounds” (University of Florida, priority 1989, dated 1991).

The nature of this data set: Hydrolysis in pH=7.1 buffer at room temperature. Format: physicochemical. Here is the method:
The compounds: [drawing 4] were prepared similarly to the above product and their hydrolytic properties under similar conditions were evaluated.

For `O=C1CCC(=O)N1COc1ccc([N+](=O)[O-])cc1` [(b)], the half-life (similar conditions (pH=7.1 buffer, room temperature)) was approximately 6 h.

`O=C1c2ccccc2S(=O)(=O)N1COc1ccc([N+](=O)[O-])cc1` [Example 1, 4-Nitro-1-[1',1',3'-trioxo-(2'H)-1',2'-benzisothiazol-2'-yl]methoxybenzene]: for the setting “pH=7.1 buffer, room temperature”, the half-life was approximately 0.283 h.

On to `O=C(NCOc1ccc([N+](=O)[O-])cc1)c1ccccc1` [Compound (a)], for which the “hydrolytic stability (in words)” value (pH=7.1, similar conditions) is reported as “completely stable”.

Usually half-life stands for the time in which the quantity being followed falls by half.
